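Exposure lasted 48 hours, with cells grown in 96-well plates and compounds tested at five concentrations. Abbreviation: GI50, concentration required for 50% inhibition of growth. TGI marks complete inhibition of growth.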 Where a SMILES comes first, the peptide text is derived from it. Bridges are numbered along the chain shown (N, C = ends).
Key:
Assay in all cases: NCI anticancer screen, dose series, 48 h
HOP-92 NSCLC = tested on: HOP-92 NSCLC
CAKI-1 renal = tested on: CAKI-1 renal
OVCAR-5 ovarian = tested on: OVCAR-5 ovarian
BT-549 breast = tested on: BT-549 breast
PC-3 prostate = tested on: PC-3 prostate
A549 NSCLC = tested on: A549 NSCLC
SK-MEL-2 melanoma = tested on: SK-MEL-2 melanoma
OVCAR-8 ovarian = tested on: OVCAR-8 ovarian
RPMI-8226 leukemia = tested on: RPMI-8226 leukemia
MCF7 breast = tested on: MCF7 breast

Structure (SMILES)	TGI (HOP-92 NSCLC) [µM]	TGI (CAKI-1 renal) [µM]	TGI (OVCAR-5 ovarian) [µM]	TGI (BT-549 breast) [µM]	TGI (PC-3 prostate) [µM]	TGI (A549 NSCLC) [µM]	TGI (SK-MEL-2 melanoma) [µM]	TGI (OVCAR-8 ovarian) [µM]	GI50 (RPMI-8226 leukemia) [µM]	TGI (RPMI-8226 leukemia) [µM]	GI50 (OVCAR-5 ovarian) [µM]	GI50 (HOP-92 NSCLC) [µM]	GI50 (CAKI-1 renal) [µM]	GI50 (A549 NSCLC) [µM]	GI50 (MCF7 breast) [µM]	TGI (MCF7 breast) [µM]	GI50 (SK-MEL-2 melanoma) [µM]	GI50 (OVCAR-8 ovarian) [µM]	GI50 (BT-549 breast) [µM]	GI50 (PC-3 prostate) [µM]
CCC(C)C1NC(=O)C(CC(C)C)NC(=O)C(C(C)C)NC(=O)C2CSSCC(NC1=O)C(=O)N2 (stereo not given) (cyclo(CCVLI); disulfide 1-2; configuration not given here)	0.248	5.41	0.381	0.369	0.329	0.399	0.363	0.491												
O=c1oc2c(O)c(O)cc3c(=O)oc4c(O)c(O)cc1c4c23	99	29.5	> 100			> 100	> 100	88.7	> 100	> 100	> 100									
Cc1ccc(-c2nc3ccccc3c(=O)n2NC2OC(CO)C(O)C(O)C2O)cc1 (stereo not given)	> 100	> 100	> 100			> 100	> 100	> 100		> 100										
CC(Oc1ccc2c(=O)cc(-c3ccccc3)oc2c1)C(=O)O (stereo not given)	> 100	> 100				> 100		> 100												
CSC(=NC(=O)c1ccccc1)SCCSC(=NC(=O)c1ccccc1)SC	83.4	> 100	> 100			> 100	> 100	> 100		> 100										
CC1(C)C2=CCCC(=O)[C@@]2(C)CC[C@@H]1O	> 100	> 100	> 100			> 100	> 100	> 100		> 100										
Cl.[O-]c1cccc2cccnc12.[O-]c1cccc2cccnc12.[O-]c1cccc2cccnc12.[O-]c1cccc2cccnc12.[Ti+4]	> 71.7	> 100	19.5	> 100		12	26.1	> 31.5		2.67	2.71	15.7	1.61	0.89	0.955	> 100	3.32	0.779		
CN(CCc1ccccn1)/[N+]([O-])=N/O (tested in a mixture with another compound)	> 100	> 100	> 100			> 100	> 100	> 100		> 100										
Cc1cc(C(=O)CC(Cl)=C(Cl)Cl)c(Cl)cc1Cl		41.4	79.8	44.4		65.9	> 100	46.3	16.6	40.8	29.8		18	23.7	29.1	> 100	51.2	21.7	20.2	
CCc1cc2c(Nc3ccccc3)c3c(nc2s1)CCCC3	> 100		> 100			> 100	> 100	> 100		87										
COC(=O)c1cc2c([nH]c3ccccc32)c(-c2nc3ccccc3cc2CO)n1	> 100	> 100	> 100	> 100	> 100	> 100	> 100	> 100			> 100	53.5	> 100	> 100	> 100	> 100	> 100	> 100	> 100	> 100

Source: PubChem BioAssay (NCI)
